Measured values as given in ChEMBL document CHEMBL1201862, “PubChem BioAssay data set” (2004).
Activity calls are given as the source filed them.

How the values were obtained:
[1] = target: Interleukin-1 receptor-associated kinase 1 (Homo sapiens, UniProt P51617); assay type: functional;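 further: IRAK1 tested as one member of a kinome panel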
[2] = target: Casein kinase II subunit alpha (Homo sapiens, UniProt P68400); assay type: functional
[3] = target: RAC-gamma serine/threonine-protein kinase (Homo sapiens, UniProt Q9Y243); assay type: functional
[4] = target: Serine/threonine-protein kinase PLK4 (Homo sapiens, UniProt O00444); assay type: functional;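 further: PLK4 measured as one member of a kinome-wide kinase profiling panel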
[5] = target: Serine/threonine-protein kinase BRSK1 (Homo sapiens, UniProt Q8TDC3); assay type: functional;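 further: measured within a kinome-wide kinase panel, with the target listed as KIAA1811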
[6] = target: Phosphorylase b kinase gamma catalytic chain, liver/testis isoform (Homo sapiens, UniProt P15735); assay type: functional;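 further: PHKG2 measured as one member of a kinome-wide kinase panel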
[7] = target: RAC-alpha serine/threonine-protein kinase (Homo sapiens, UniProt P31749); assay type: functional;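 further: AKT1 affinity measured as one member of a kinome-wide kinase profiling panel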
[8] = target: Fibroblast growth factor receptor 3 (Homo sapiens, UniProt P22607); assay type: functional
[9] = target: Maternal embryonic leucine zipper kinase (Homo sapiens, UniProt Q14680); assay type: functional
[10] = target: Calcium/calmodulin-dependent protein kinase type II subunit delta (Homo sapiens, UniProt Q13557); assay type: functional
[11] = target: MAP kinase-activated protein kinase 3 (Homo sapiens, UniProt Q16644); assay type: functional;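 further: value comes from a kinome-wide profiling panel in which MAPKAPK3 is one of the panel members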
[12] = target: 5'-AMP-activated protein kinase catalytic subunit alpha-1 (Homo sapiens, UniProt Q13131); assay type: functional
[13] = target: Interleukin-1 receptor-associated kinase 4 (Homo sapiens, UniProt Q9NWZ3); assay type: functional
[14] = target: Glycogen synthase kinase-3 beta (Homo sapiens, UniProt P49841); assay type: functional;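 further: value comes from a broad kinome profiling panel, with GSK3B as the panel member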
[15] = target: cAMP-dependent protein kinase catalytic subunit PRKX (Homo sapiens, UniProt P51817); assay type: functional
[16] = target: Mitogen-activated protein kinase kinase kinase kinase 2 (Homo sapiens, UniProt Q12851); assay type: functional;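 further: measured as one member of a kinome-wide kinase panel, with MAP4K2 as the panel entry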
[17] = target: Cyclin-dependent kinase 1 (Homo sapiens, UniProt P06493); assay type: functional;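 further: Kinome-wide panel profiling, with the target listed as panel member CDC2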
[18] = target: Tyrosine-protein kinase Fyn (Homo sapiens, UniProt P06241); assay type: functional
[19] = target: Serine/threonine-protein kinase 3 (Homo sapiens, UniProt Q13188); assay type: functional;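 further: measured as one member of a kinome-wide kinase panel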
[20] = target: Calcium/calmodulin-dependent protein kinase type 1 (Homo sapiens, UniProt Q14012); assay type: functional
[21] = target: BDNF/NT-3 growth factors receptor (Homo sapiens, UniProt Q16620); assay type: functional;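 further: NTRK2 measured as one member of a broad kinome-wide kinase profiling panel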
[22] = target: cGMP-dependent protein kinase 1 (Homo sapiens, UniProt Q13976); assay type: functional;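 further: value from a kinome panel screen with PRKG1 as the panel member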
[23] = target: MAP kinase-activated protein kinase 2 (Homo sapiens, UniProt P49137); assay type: functional;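 further: measured as one member of a kinome-wide kinase panel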
[24] = target: Epidermal growth factor receptor (Homo sapiens, UniProt P00533)
[25] = target: Tyrosine-protein kinase Lck (Homo sapiens, UniProt P06239); assay type: functional;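 further: lck was assayed as one member of a kinase panel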
[26] = target: Serine/threonine-protein kinase 17A (Homo sapiens, UniProt Q9UEE5); assay type: functional
[27] = target: Serine/threonine-protein kinase pim-3 (Homo sapiens, UniProt Q86V86); assay type: functional;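 further: value obtained as one member of a broad kinase panel profiling effort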
[28] = target: Serine/threonine-protein kinase MRCK alpha (Homo sapiens, UniProt Q5VT25); assay type: functional
[29] = target: Tyrosine-protein kinase Lyn (Homo sapiens, UniProt P07948); assay type: functional;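 further: lyn as one member of a kinase panel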
[30] = target: Dual specificity protein kinase CLK2 (Homo sapiens, UniProt P49760); assay type: functional
[31] = target: cAMP-dependent protein kinase catalytic subunit alpha (Homo sapiens, UniProt P17612); assay type: functional
[32] = target: Testis-specific serine/threonine-protein kinase 2 (Homo sapiens, UniProt Q96PF2); assay type: functional;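 further: part of the Navigating the Kinome panel, target entry STK22B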
[33] = target: SRSF protein kinase 1 (Homo sapiens, UniProt Q96SB4); assay type: functional;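 further: measured as one member of a kinome-wide kinase profiling panel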
[34] = target: Receptor tyrosine-protein kinase erbB-2 (Homo sapiens, UniProt P04626); assay: Navigating the Kinome. Panel member name: ERBB2; assay type: functional
[35] = target: Tyrosine-protein kinase BTK (Homo sapiens, UniProt Q06187); assay type: functional
[36] = target: Serine/threonine-protein kinase Chk2 (Homo sapiens, UniProt O96017); assay type: functional;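 further: CHEK2 entry within a kinome-wide screening panel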
[37] = target: Ribosomal protein S6 kinase beta-1 (Homo sapiens, UniProt P23443); assay type: functional;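 further: measured as one member of a kinome-wide profiling panel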
[38] = target: Dual specificity tyrosine-phosphorylation-regulated kinase 1A (Homo sapiens, UniProt Q13627); assay type: functional;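 further: measured against DYRK1A as one member of a broad kinome profiling panel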
[39] = target: 3-phosphoinositide-dependent protein kinase 1 (Homo sapiens, UniProt O15530); assay type: functional;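 further: value comes from the Navigating the Kinome panel, PDPK1 member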
[40] = target: Tyrosine-protein kinase Blk (Homo sapiens, UniProt P51451); assay type: functional;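 further: obtained as one member of a kinome-wide kinase assay panel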
[41] = target: Receptor-type tyrosine-protein kinase FLT3 (Homo sapiens, UniProt P36888); assay type: functional;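 further: FLT3 was tested as one member of a kinome-wide kinase panel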
[42] = target: Tyrosine-protein kinase SYK (Homo sapiens, UniProt P43405); assay type: functional
[43] = test system: H9c2; assay: cells; assay type: functional, cell-based; settings: Rattus norvegicus, H9c2, Myocardium;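 further: confirmatory concentration-response retest of ultra-high-throughput screening hits for modulation of myocardial damage; cell death induced by hydrogen peroxide oxidative stress; compound pretreatment for 60 min then peroxide exposure for 2 h; potency is for protecting the cells against peroxide damage rather than for killing them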
[44] = target: ATP-dependent molecular chaperone HSP82 (Candida albicans (strain WO-1) (Yeast), UniProt C4YTQ8); assay: loss of DOC-induced GRE-beta-galactosidase reporter signal, dose response, Hsp90 inhibitor project, S. cerevisiae, luminescence (AID 2400); assay type: functional, cell-based;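 further: beta-galactosidase luminescence from glucocorticoid response element reporter as proxy for Hsp90 function; inhibitor potency where signal loss means Hsp90 inhibition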
[45] = NIH-3T3 fibroblast cytotoxicity, dose response, cytotoxicity control, cell-based, fluorescence, Alamar Blue, secondary assay (AID 2327); assay type: functional;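 further: NIH-3T3 mouse fibroblasts cultured with fluconazole at 8 µg/mL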

Sequence of Serine/threonine-protein kinase 3 (Q13188 whole entry): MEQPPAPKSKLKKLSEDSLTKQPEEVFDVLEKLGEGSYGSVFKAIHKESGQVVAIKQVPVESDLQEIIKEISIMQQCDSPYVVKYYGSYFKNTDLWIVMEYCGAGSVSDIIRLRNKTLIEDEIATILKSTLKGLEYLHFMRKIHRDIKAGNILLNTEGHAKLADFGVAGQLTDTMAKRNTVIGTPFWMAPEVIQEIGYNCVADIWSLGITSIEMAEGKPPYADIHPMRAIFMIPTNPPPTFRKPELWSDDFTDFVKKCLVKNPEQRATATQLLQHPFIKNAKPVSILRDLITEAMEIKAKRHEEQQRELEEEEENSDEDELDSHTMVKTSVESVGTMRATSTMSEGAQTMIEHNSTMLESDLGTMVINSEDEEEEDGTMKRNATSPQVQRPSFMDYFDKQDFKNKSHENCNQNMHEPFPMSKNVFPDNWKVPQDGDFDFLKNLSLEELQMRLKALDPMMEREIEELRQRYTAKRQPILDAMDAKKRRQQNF
Sequence of Cyclin-dependent kinase 1 (P06493 whole entry): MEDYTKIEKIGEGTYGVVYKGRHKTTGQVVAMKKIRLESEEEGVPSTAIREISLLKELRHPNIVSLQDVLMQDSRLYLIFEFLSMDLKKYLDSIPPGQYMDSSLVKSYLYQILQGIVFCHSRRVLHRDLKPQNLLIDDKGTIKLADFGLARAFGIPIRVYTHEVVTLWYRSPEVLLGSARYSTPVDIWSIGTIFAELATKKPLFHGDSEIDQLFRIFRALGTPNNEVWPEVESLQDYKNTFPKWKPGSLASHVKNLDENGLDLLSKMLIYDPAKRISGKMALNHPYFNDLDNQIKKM
Sequence of BDNF/NT-3 growth factors receptor (Q16620 whole entry): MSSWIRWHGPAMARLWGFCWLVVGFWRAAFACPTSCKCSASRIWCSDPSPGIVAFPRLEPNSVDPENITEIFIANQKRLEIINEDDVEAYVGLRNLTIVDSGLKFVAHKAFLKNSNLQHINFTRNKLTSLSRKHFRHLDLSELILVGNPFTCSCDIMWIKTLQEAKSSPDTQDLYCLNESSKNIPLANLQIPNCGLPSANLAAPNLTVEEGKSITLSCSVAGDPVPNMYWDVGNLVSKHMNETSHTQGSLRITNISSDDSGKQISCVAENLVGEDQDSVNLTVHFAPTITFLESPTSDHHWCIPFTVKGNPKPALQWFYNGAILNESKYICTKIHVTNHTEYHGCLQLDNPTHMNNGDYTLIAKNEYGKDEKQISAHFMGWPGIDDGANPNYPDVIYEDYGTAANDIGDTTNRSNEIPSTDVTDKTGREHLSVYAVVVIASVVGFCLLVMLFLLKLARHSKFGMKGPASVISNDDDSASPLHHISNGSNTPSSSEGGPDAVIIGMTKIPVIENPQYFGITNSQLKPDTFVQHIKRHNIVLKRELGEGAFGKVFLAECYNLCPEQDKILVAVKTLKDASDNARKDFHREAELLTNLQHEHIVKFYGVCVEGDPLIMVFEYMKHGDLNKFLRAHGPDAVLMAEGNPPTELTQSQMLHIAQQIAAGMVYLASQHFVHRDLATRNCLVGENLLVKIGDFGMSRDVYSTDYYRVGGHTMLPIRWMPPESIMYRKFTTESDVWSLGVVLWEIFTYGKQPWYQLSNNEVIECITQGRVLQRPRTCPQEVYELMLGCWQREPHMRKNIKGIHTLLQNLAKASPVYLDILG
Sequence of Tyrosine-protein kinase Blk (P51451 whole entry): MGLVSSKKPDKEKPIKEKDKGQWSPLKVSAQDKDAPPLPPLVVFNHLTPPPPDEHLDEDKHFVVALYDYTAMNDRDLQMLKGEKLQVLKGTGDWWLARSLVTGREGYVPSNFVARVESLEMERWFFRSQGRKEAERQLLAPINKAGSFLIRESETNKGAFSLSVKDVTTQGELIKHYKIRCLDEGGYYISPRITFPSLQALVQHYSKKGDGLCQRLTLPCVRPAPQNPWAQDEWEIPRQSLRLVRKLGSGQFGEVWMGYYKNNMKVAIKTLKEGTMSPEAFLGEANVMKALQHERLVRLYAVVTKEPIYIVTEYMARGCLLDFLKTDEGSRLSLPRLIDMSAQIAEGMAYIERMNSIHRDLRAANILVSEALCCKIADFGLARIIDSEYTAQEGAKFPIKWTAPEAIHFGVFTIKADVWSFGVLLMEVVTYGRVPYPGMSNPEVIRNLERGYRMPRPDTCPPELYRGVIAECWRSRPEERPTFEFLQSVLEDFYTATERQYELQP
Sequence of Interleukin-1 receptor-associated kinase 4 (Q9NWZ3 whole entry): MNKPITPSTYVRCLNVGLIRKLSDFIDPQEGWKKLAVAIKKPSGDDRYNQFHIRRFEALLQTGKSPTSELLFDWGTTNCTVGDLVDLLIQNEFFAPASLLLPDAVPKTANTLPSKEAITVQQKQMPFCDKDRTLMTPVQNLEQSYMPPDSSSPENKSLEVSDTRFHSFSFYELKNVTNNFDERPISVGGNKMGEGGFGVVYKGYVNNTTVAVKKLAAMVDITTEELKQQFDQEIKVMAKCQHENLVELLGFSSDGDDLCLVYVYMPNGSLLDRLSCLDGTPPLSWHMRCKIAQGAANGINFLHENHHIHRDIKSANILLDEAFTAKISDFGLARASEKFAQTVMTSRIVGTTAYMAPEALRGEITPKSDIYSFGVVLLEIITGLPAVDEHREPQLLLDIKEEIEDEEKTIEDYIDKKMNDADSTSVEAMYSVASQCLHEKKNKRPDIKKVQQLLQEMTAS
Sequence of Tyrosine-protein kinase Lck (P06239 whole entry): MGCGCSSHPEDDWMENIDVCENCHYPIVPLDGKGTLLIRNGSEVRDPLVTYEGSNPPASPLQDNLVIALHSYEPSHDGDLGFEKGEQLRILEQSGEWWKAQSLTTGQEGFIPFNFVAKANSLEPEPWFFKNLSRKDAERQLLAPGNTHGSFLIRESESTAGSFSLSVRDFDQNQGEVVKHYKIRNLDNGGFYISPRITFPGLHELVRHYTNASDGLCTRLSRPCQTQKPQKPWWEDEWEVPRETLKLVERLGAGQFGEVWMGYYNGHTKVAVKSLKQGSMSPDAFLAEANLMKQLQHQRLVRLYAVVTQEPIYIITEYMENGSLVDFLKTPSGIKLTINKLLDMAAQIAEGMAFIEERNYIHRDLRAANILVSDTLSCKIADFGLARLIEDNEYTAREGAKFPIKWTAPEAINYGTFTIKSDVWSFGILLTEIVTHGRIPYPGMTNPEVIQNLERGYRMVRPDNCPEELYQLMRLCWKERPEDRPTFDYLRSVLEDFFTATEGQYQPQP
Sequence of RAC-alpha serine/threonine-protein kinase (P31749 whole entry): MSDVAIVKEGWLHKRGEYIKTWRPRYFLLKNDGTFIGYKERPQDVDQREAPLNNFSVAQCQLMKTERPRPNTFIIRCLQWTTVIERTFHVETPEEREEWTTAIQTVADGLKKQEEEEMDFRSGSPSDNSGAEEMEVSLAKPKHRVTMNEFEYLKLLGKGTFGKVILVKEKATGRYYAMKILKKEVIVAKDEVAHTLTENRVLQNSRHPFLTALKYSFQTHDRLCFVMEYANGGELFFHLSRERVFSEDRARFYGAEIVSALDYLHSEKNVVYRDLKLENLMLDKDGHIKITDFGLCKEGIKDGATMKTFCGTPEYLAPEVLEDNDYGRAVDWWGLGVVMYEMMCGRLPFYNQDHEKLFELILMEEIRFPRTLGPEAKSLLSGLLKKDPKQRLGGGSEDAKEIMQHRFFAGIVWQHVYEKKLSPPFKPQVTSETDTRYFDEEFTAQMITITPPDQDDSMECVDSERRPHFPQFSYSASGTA
Sequence of Testis-specific serine/threonine-protein kinase 2 (Q96PF2 whole entry): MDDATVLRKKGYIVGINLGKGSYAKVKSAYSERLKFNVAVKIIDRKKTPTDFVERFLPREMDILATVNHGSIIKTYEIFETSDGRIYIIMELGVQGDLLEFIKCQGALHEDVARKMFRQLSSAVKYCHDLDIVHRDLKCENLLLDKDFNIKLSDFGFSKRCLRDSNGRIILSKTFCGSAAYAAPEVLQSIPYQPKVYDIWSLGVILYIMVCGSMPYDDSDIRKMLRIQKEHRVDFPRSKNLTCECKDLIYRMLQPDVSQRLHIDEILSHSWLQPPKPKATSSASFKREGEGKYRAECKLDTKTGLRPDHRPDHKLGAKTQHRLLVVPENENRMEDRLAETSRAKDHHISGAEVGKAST
Sequence of Mitogen-activated protein kinase kinase kinase kinase 2 (Q12851 whole entry): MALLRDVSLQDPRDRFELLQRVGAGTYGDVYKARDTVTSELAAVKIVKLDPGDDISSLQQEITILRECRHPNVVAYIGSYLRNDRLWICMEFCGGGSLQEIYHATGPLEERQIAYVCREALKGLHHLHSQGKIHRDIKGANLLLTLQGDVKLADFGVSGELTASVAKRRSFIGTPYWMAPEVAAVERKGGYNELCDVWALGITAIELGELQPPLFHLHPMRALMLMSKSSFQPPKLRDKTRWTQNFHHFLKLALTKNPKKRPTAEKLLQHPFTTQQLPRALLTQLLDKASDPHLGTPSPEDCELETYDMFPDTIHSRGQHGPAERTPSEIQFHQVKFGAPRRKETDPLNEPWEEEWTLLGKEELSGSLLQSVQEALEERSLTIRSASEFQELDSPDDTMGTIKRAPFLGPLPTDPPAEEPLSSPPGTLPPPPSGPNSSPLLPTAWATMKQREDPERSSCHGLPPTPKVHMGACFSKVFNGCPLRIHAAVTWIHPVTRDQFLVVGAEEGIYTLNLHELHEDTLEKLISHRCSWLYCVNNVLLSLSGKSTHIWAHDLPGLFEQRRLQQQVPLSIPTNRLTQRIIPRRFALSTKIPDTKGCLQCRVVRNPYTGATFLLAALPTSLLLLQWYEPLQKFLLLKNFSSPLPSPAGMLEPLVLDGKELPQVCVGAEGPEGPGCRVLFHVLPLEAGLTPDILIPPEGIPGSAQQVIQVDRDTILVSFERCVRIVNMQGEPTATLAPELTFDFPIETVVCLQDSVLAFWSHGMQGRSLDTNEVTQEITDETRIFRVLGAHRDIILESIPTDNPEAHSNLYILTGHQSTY

SMILES: CCn1c(-c2nonc2N)nc2cnc(Oc3cccc(NC(=O)c4ccc(OCCN5CCOCC5)cc4)c3)cc21 [GSK-269962A]
- Ki [1]: > 7.94 µM (inactive)
- Ki [2]: > 6.31 µM (inactive)
- Ki [3]: 2 µM (active)
- Ki [4]: 0.316 µM (active)
- Ki [5]: > 10 µM (inactive)
- Ki [6]: > 5.01 µM (inactive)
- Ki [7]: 0.501 µM (active)
- Ki [8]: > 2 µM (inactive)
- Ki [9]: > 1.58 µM (inactive)
- Ki [10]: > 6.31 µM (inactive)
- Ki [11]: > 10 µM (inactive)
- Ki [12]: > 1.58 µM (inactive)
- Ki [13]: > 10 µM (inactive)
- Ki [14]: 0.0631 µM (active)
- Ki [15]: 0.0501 µM (active)
- Ki [16]: > 6.31 µM (inactive)
- Ki [17]: > 7.94 µM (inactive)
- Ki [18]: > 0.794 µM (inactive)
- Ki [19]: > 7.94 µM (inactive)
- Ki [20]: > 5.01 µM (inactive)
- Ki [21]: > 5.01 µM (inactive)
- Ki [22]: 0.158 µM (active)
- Ki [23]: > 7.94 µM (inactive)
- Ki [24]: > 2 µM (inactive)
- Ki [25]: 2.51 µM (active)
- Ki [26]: 0.158 µM (active)
- Ki [27]: 1.58 µM (active)
- Ki [28]: 0.158 µM (active)
- Ki [29]: > 1.58 µM (inactive)
- Ki [30]: > 7.94 µM (inactive)
- Ki [31]: 0.0316 µM (active)
- Ki [32]: > 1.58 µM (inactive)
- Ki [33]: 7.94 µM (active)
- Ki [34]: > 1.58 µM (inactive)
- Ki [35]: > 1.26 µM (inactive)
- Ki [36]: > 1.58 µM (inactive)
- Ki [37]: 0.00316 µM (active)
- Ki [38]: > 6.31 µM (inactive)
- Ki [39]: > 3.98 µM (inactive)
- Ki [40]: > 1.58 µM (inactive)
- Ki [41]: 1.58 µM (active)
- Ki [42]: > 1.58 µM (inactive)

SMILES: COc1ccc(-c2nnc(NC(=O)c3ccc(F)cc3)o2)cc1
- IC50 [43]: > 79 µM (inactive)
- EC50 [44]: > 150 µM (inactive)
- EC50 [45]: > 150 µM (inactive)
